By MIC is commonly meant the smallest concentration in the dilution series that meets the test's criterion for growth inhibition. For orientation: IC50 means the concentration that inhibits the measured activity by half. What is called MBC is the smallest concentration meeting the test's criterion for killing. A high value points to weaker bactericidal potency.

In data set [1] the test system is methicillin-resistant S. aureus 63718. As to the kind of experiment: In vitro antibacterial evaluation, MIC by microtitration broth method. To be noted: Staphylococcus aureus.
The test system of data set [2] is methicillin-resistant S. aureus SA 630. The data set is described as above. As to conditions: Staphylococcus aureus.
The test system of data set [3] is vancomycin-resistant E. faecalis VRE 725B. The data set is described as above. To be noted: Enterococcus faecalis.
The subject of data set [4] is methicillin-resistant S. aureus SA 3202. The description is as above. To be noted: Staphylococcus aureus.
The test system of data set [5] is Enterococcus faecalis ATCC 29212. The description is as above.
For data set [6], the system named is vancomycin-resistant E. faecalis VRE 342B. Described as above. To be noted: Enterococcus faecalis.
The nature of data set [7]: Lipophilicity determination by HPLC. Format: physicochemical. To be noted: for log D6.5: HPLC C18, MeOH 72%/acetate-buffered saline pH 6.5 28%; for log D7.4: HPLC C18, MeOH 72%/acetate-buffered saline pH 7.4 28%; for log k: logarithm of capacity factor, HPLC C18, MeOH 72%/H2O 28%. The source says:
. A chromatographic column Symmetry® C18 5 μm, 4.6 × 250 mm, Part No. W21751W016 (Waters Corp, Milford, MA, USA) was used. The HPLC separation process was monitored by ChemStation for LC 3D systems (Agilent Technologies). Isocratic elution by a mixture of MeOH (HPLC grade, 72%) and H2O-HPLC Mili-Q grade (28%) as a mobile phase was used for the determination of capacity factor k. Isocratic elution by a mixture of MeOH (HPLC grade, 72%) and acetate-buffered saline (pH 7.4 and pH 6.5) (28%) as a mobile phase was used for the determination of distribution coefficient expressed as D7.4 and D6.5. The total flow of the column was 1.0 mL/min, injection was 20 μL, column temperature was 40 °C, and sample temperature was 10 °C. The detection wavelength of 210 nm was chosen. A KI methanolic solution was used for the determination of the dead times (tD). Retention times (tR) were measured in minutes. The capacity factors k were calculated according to the formula k = (tR − tD)/tD, where tR is the retention time of the solute, and tD is the dead time obtained using an unretained analyte. The distribution coefficients DpH were calculated according to the formula DpH = (tR − tD)/tD. Each experiment was repeated three times.

The subject of data set [8] is M. smegmatis ATCC 700084. The data set is described as follows: In vitro antimycobacterial evaluation, MIC (broth dilution micro-method). Format: cell-based, Mycobacterium smegmatis. To be noted: Mycolicibacterium smegmatis. As for the experimental part:
For M. smegmatis, the broth dilution micro-method in Middlebrook 7H9 medium (Difco) supplemented with ADC Enrichment (Difco) was used. […] Bacterial inocula were prepared by transferring colonies from culture to sterile water. The cell density was adjusted to 0.5 McFarland units using a densitometer (Densi-La-Meter, LIAP, Riga, Latvia). The final inoculum was made by 1:1000 dilution of the suspension with sterile water. Drug-free controls, sterility controls, and controls consisting of medium and DMSO alone were included. The determination of results was performed visually after three days of static incubation in the darkness at 37 °C in an aerobic atmosphere.

Data set [9] has as its system Mycobacterium tuberculosis H37Ra/ATCC 25177. As to the kind of experiment: In vitro antimycobacterial evaluation, MIC (alamarBlue). As to conditions: MT. For orientation: The colour change of resazurin is a common sign of viable cells or microbes.
Data set [10] has as its system human monocytic leukemia cell line THP-1. The data set is described as follows: In vitro cell viability analysis (CCK-8). It counts as cell-based. As to conditions: ± SD, n = 6, medium with 10% FBS, 24 h. As for the experimental part: Human monocytic leukemia THP-1 cells obtained from the European Collection of Cell Cultures (ECACC, Salisbury, UK) were used for in vitro antiproliferative assays. They were routinely cultured in Roswell Park Memorial Institute RPMI 1640 medium supplemented with 10% fetal bovine serum (FBS), 2% L-glutamine, 1% penicillin, and streptomycin (all from Sigma-Aldrich) at 37 °C with 5% CO2. The cells were incubated in a complete medium (i.e., containing FBS) with test compounds at 37 °C with 5% CO2 for 24 h, similarly as we described previously. The effect of the test compounds dissolved in DMSO on cell viability was determined using a Cell Counting Kit-8 (CCK-8; Sigma) according to the manufacturer’s instructions.

The subject of data set [11] is Staphylococcus aureus ATCC 29213. The data set is described as follows: In vitro antibacterial evaluation, MIC by microtitration broth method.
In data set [12] the test system is vancomycin-resistant E. faecalis VRE 368. The data set is described as above. To be noted: Enterococcus faecalis.
For data set [13], the system named is Staphylococcus aureus ATCC 29213. As to the kind of experiment: Determination of minimum bactericidal concentrations (agar aliquot subculture). As to conditions: ATCC29213.
The subject of data set [14] is methicillin-resistant S. aureus SA 630. The description is as above. To be noted: Staphylococcus aureus.
[15] abbreviates: ATCC700084, 72 h, MS, three days, 37 °C, read-out: MIC.

≈ marks a conversion by molar mass, not a printed value. Like-named read-outs stand apart in the source and are kept apart here. A value given as a limit tells only on which side of the number the result lay.

With `C[C@H](NC(=O)c1cc(Cl)ccc1O)C(=O)Nc1ccc(C(F)(F)F)cc1` [3a, 5-Chloro-2-hydroxy-N-[(2S)-1-oxo-1-{[4-(trifluoromethyl)phenyl]amino}propan-2-yl]benzamide], the minimum inhibitory concentration (MIC) in [1] (24 h) was above 256 µg/mL; in data set [2] (24 h), above 256 µg/mL; in data set [3] (24 h), above 256 µg/mL; in [4] (24 h) it was above 256 µg/mL; in [5] (ATCC29212, 24 h) it was above 256 µg/mL; in data set [6] (24 h), above 256 µg/mL. Further, the MIC in data set [8] (setting [15]) is above 256 µg/mL; in [9] (14 days, 37 °C), “n.a. n.d. (n.a. = no activity (MIC > 256 µg/mL))”; in [11] (ATCC29213, 24 h), above 256 µg/mL; in data set [12] (24 h), above 256 µg/mL. Also, the “log D6.5” value in data set [7] is 0.804. Besides, the “log D7.4” value in data set [7] amounted to 0.759. In addition, the “averaged lipophilicity value of log k/log D6.5/log D7.4” value in data set [7] (average of the three experimental descriptors) is recorded as 0.81 ± 0.05. Moreover, the log k in [7] stood at 0.866. For the same molecule, the IC50 in [10] was above 10 µM.

`CCC[C@H](NC(=O)c1cc(Cl)ccc1O)C(=O)Nc1ccc(C(F)(F)F)cc1` [3b, 5-Chloro-2-hydroxy-N-[(2S)-1-oxo-1-{[4-(trifluoromethyl)phenyl]amino}pentan-2-yl]benzamide]: the MIC was above 256 µg/mL in [1] (24 h); above 256 µg/mL in [2] (24 h); above 256 µg/mL in data set [3] (24 h); above 256 µg/mL in [4] (24 h); above 256 µg/mL in data set [5] (ATCC29212, 24 h); above 256 µg/mL in [6] (24 h). The MIC was above 256 µg/mL in data set [8] (setting [15]); “n.a. n.d. (n.a. = no activity (MIC > 256 µg/mL))” in data set [9] (14 days, 37 °C); above 256 µg/mL in [11] (ATCC29213, 24 h); above 256 µg/mL in [12] (24 h). Besides, the “log D6.5” value in data set [7] came out at 1.060. Further, the “log D7.4” value in data set [7] amounted to 1.016. In data set [7], the log k was 1.141. The molecule further yielded an IC50 in [10] of 7.3 ± 1.2 µM.

On to `CC(C)C[C@H](NC(=O)c1cc(Cl)ccc1OCc1ccccc1)C(=O)N[C@@H](Cc1ccccc1)C(=O)Nc1ccc(C(F)(F)F)cc1` [5a], for which the minimum inhibitory concentration (MIC) in [1], in data set [2], in data set [3], in data set [4], in data set [5] (ATCC29212) and in data set [6] was above 256 µg/mL in each case. For the same molecule, the MIC in [8] (ATCC700084), in [9] (Table S2), in [11] (ATCC29213) and in data set [12] was above 256 µg/mL each time. Further, in data set [7], the “log D6.5” value is listed as 1.998. Also, in [7], the “log D7.4” value was determined as 2.031. For the same molecule, the log k in data set [7] came to 2.053. The half-maximal inhibitory concentration (IC50) in data set [10] was above 10 µM.

With `CC(C)C[C@H](NC(=O)[C@H](Cc1ccccc1)NC(=O)c1cc(Cl)ccc1OCc1ccccc1)C(=O)Nc1ccc(C(F)(F)F)cc1` [5b], the minimal inhibitory concentration (MIC) in data set [1], in [2], in data set [3], in [4], in data set [5] (ATCC29212) and in data set [6] was above 256 µg/mL throughout. For the same molecule, the minimal inhibitory concentration (MIC) in data set [8] (ATCC700084), in [9] (Table S2), in data set [11] (ATCC29213) and in data set [12] was above 256 µg/mL each time. Further, the “log D6.5” value in data set [7] was 1.994. Besides, the “log D7.4” value in [7] is 2.027. For the same molecule, the log k in data set [7] came to 2.049. The concentration for half-maximal inhibition (IC50) in data set [10] was above 10 µM.

`O=C(N[C@@H](Cc1ccccc1)C(=O)N[C@@H](Cc1ccccc1)C(=O)Nc1ccc(C(F)(F)F)cc1)c1cc(Cl)ccc1OCc1ccccc1` [5c]: the MIC in data set [1], in data set [2], in [3], in data set [4], in data set [5] (ATCC29212) and in data set [6] was above 256 µg/mL each time. The MIC in data set [8] (ATCC700084), in [9] (Table S2), in data set [11] (ATCC29213) and in data set [12] was above 256 µg/mL each time. The “log D6.5” value in data set [7] turned out to be 2.062. Also, the “log D7.4” value in data set [7] was found to be 2.096. The log k in [7] is reported as 2.119. The molecule further registered an IC50 in data set [10] above 10 µM.

`CC(C)C[C@H](NC(=O)c1cc(Cl)ccc1O)C(=O)N[C@@H](Cc1ccccc1)C(=O)Nc1ccc(C(F)(F)F)cc1` [6a]: the MIC in [1] (24 h) was 444 µM; in [2] (24 h), 444 µM; in data set [3] (24 h) it was above 256 µg/mL; in data set [4] (24 h), 444 µM; in data set [5] (ATCC29212, 24 h) it was above 256 µg/mL; in [6] (24 h), above 256 µg/mL. Moreover, the MIC was above 256 µg/mL in data set [8] (setting [15]); “n.a. n.d. (n.a. = no activity (MIC > 256 µg/mL))” in data set [9] (14 days, 37 °C); 222 µM in data set [11] (ATCC29213, 24 h); above 256 µg/mL in data set [12] (24 h). Besides, in data set [7], the “log D6.5” value was determined as 1.510. Besides, in data set [7], the “log D7.4” value is 1.493. Also, the log k in data set [7] came out at 1.560. This molecule displayed an IC50 in [10] of 2.2 ± 1.1 µM.

`CC(C)C[C@H](NC(=O)[C@H](Cc1ccccc1)NC(=O)c1cc(Cl)ccc1O)C(=O)Nc1ccc(C(F)(F)F)cc1` [6b]: the minimal inhibitory concentration (MIC) was 444 µM in data set [1] (24 h); 55.6 µM in [2] (24 h); above 256 µg/mL in data set [3] (24 h); 55.6 µM in data set [4] (24 h); above 256 µg/mL in data set [5] (ATCC29212, 24 h); above 256 µg/mL in [6] (24 h). Moreover, the minimum inhibitory concentration (MIC) is above 256 µg/mL in [8] (setting [15]); “n.a. n.d. (n.a. = no activity (MIC > 256 µg/mL))” in [9] (14 days, 37 °C); 55.6 µM in data set [11] (ATCC29213, 24 h); above 256 µg/mL in data set [12] (24 h). Further, the values for the MBC in data set [13] and in data set [14] were 112 µM (≈ 64.5 µg/mL) and 444 µM (≈ 256 µg/mL), respectively. Also, in [7], the “log D6.5” value stood at 1.528. For the same molecule, the “log D7.4” value in [7] was found to be 1.453. The same molecule gave a log k in data set [7] of 1.547. This molecule also showed a half-inhibitory concentration (IC50) in data set [10] of 1.6 ± 1 µM.

As to `O=C(N[C@@H](Cc1ccccc1)C(=O)N[C@@H](Cc1ccccc1)C(=O)Nc1ccc(C(F)(F)F)cc1)c1cc(Cl)ccc1O` [6c], the minimum inhibitory concentration (MIC) is above 256 µg/mL in [1] (24 h); above 256 µg/mL in data set [2] (24 h); above 256 µg/mL in data set [3] (24 h); above 256 µg/mL in data set [4] (24 h); above 256 µg/mL in [5] (ATCC29212, 24 h); above 256 µg/mL in data set [6] (24 h). Besides, the minimum inhibitory concentration (MIC) in data set [8] (setting [15]) is above 256 µg/mL; in data set [9] (14 days, 37 °C), “n.a. n.d. (n.a. = no activity (MIC > 256 µg/mL))”; in data set [11] (ATCC29213, 24 h), above 256 µg/mL; in data set [12] (24 h), above 256 µg/mL. For the same molecule, in data set [7], the “log D6.5” value was found to be 1.548. In addition, the “log D7.4” value in [7] was determined as 1.495. Further, in [7], the log k was determined as 1.587. For the same molecule, in data set [10], the IC50 amounted to 1.3 ± 1.1 µM.

(Values after publication PMC9569995, “Study of Biological Activities and ADMET-Related Properties of Salicylanilide-Based Peptidomimetics” (International Journal of Molecular Sciences, 2022).)
